Measurements published in patent US20110123617A1, “CLIOQUINOL FOR THE TREATMENT OF HEMATOLOGICAL MALIGNANCIES” (priority 2007, published 2011).

What was measured:
[1] = tested on: chymotrypsin-like activity of the proteasome; assay: Proteasome activity after treatment of intact cell lines; format: cell-based; settings: intact leukemia and myeloma cell lines
Method: A) Proteasome activity of MDAY-D2 and JJN3 cellular extracts after two hours of treatment with clioquinol (CQ), CuCl2 (Cu), or an equimolar concentration of CQ and Cu. After treatment, the preferential chymotrypsin-like substrate Suc-LLVY-AMC was added and the rate of free AMC was measured over time with a florescent spectrophotometric plate reader (excitation=380 nm, emission=460 nm). B) Proteasome activity of intact MDAY-D2 and JJN3 cells after two hours of treatment with clioquinol (CQ), CuCl2 (Cu), or an equimolar concentration of CQ and Cu. After treatment, the preferential chymotrypsin-like substrate Suc-LLVY-AMC was added and the rate of free AMC was measured over time with a florescent spectrophotometric plate reader (excitation=380 nm, emission=460 nm). Cellular proteins were extracted from cells with lysis buffer (50 mM HEPES pH 7.5, 150 mM NaCl, 2 mM ATP, and 1% Triton X-100). The chymotrypsin-like activity of the proteasome was measured by incubating equal amounts of protein with the preferential chymotrypsin-like substrate Suc-LLVY-AMC in assay buffer (50 mM Tris-HCl, pH 7.5, 150 mM NaCl) for two hours. After incubation, […] and the rate of free AMC was measured over time with a florescent spectrophotometric plate reader (excitation=380 nm, emission=460 nm). […]

[2] = tested on: MDAY-D2 murine leukemia cells
Method: DBA-2 mice were injected intraperitoneally with MDAY-D2 murine leukemia cells. Mice were then treated twice daily by oral gavage with clioquinol (100 mg/kg) dissolved in intralipid or intralipid control. Ten days after treatment, mice were sacrificed, the intraperitoneal tumor excised, and the weight and volume of the tumor measured.
MDAY-D2 leukemia cells were injected intraperitoneally into DBA2 mice. Mice were then treated twice daily with oral clioquinol (100 mg/kg) for 10 days. Ten days after treatment, mice were sacrificed and the weight and volume of the intraperitoneal tumor was measured (FIG. 7). […] K562 leukemia cells were injected subcutaneous into sublethally irradiated […] mice. The clioquinol treatment was initiated when tumors reached volumes of 200 mm^3 at which time mice were randomized to receive 100 mg/kg of clioquinol (treated group) or buffer control (untreated group) for 5 of 7 days. Caliper measurements were performed twice weekly to estimate tumor volume and differences compared between treated and untreated groups.

[3] = tested on: cyclin D2; assay: Immunoblotting of cyclin D2 in myeloma and leukemia cells; format: cell-based; settings: low micromolar concentrations
Source text: A) Effect of increasing concentrations of clioquinol on LP1 and MY5 multiple myeloma cells at twenty hours after clioquinol treatment; determined by SDS-PAGE immunoblotting. B) Effect of increasing concentrations of clioquinol on the G0/G1 ratio in AML3, U937, LP1 and MY5 cells at twenty hours after clioquinol treatment; determined by PI staining and flow cytometry. To prepare cytosolic extracts, NIH3T3 cells and myeloma cells were washed with phosphate-buffered saline (PBS, pH 7.4) and suspending in lysis buffer [10 mM Tris (pH 7.4), 150 mM NaCl, 0.1% Triton X-100, 0.5% sodium deoxycholate, and 5 mM EDTA] containing protease inhibitors (Complete tablets, Roche, Indianapolis, Ind.). Protein concentrations were determined by the Bradford assay. Immunoblot assays were performed by subjecting equal amounts of protein to SDS-PAGE gels followed by transfer to Nitrocellulose membranes. Membranes were probed with polyclonal rabbit anti-human cyclin D2 (0.5 μg/ml, both from Santa Cruz Biotech, Santa Cruz, Calif.), or monoclonal mouse-anti human p21 (1:200 v/v, Santa Cruz Biotech), monoclonal mouse-anti human p27 (1:2,500 v/v BD Transduction Laboratories), polyclonal mouse-anti human ubiquitin (1:2,000 v/v Calbiochem) and monoclonal mouse-anti-β-actin (1:10,000 v/v) (Sigma, St. Lois, Mo.). […] Detection was performed by the Enhanced Chemical Luminescence (ECL) method (Pierce, Rockford, Ill.).

[4] = tested on: ubiquitinated proteins; assay: Immunoblotting of ubiquitinated proteins; format: cell-based; settings: leukemia and myeloma cells
Method: Effect of increasing concentrations of clioquinol on LP1 and MY5 multiple myeloma cells at twenty hours after clioquinol treatment; determined by SDS-PAGE immunoblotting. To prepare cytosolic extracts, NIH3T3 cells and myeloma cells were washed with phosphate-buffered saline (PBS, pH 7.4) and suspending in lysis buffer [10 mM Tris (pH 7.4), 150 mM NaCl, 0.1% Triton X-100, 0.5% sodium deoxycholate, and 5 mM EDTA] containing protease inhibitors (Complete tablets, Roche, Indianapolis, Ind.). Protein concentrations were determined by the Bradford assay. Immunoblot assays were performed by subjecting equal amounts of protein to SDS-PAGE gels followed by transfer to Nitrocellulose membranes. Membranes were probed with polyclonal rabbit anti-human cyclin D2 (0.5 μg/ml, both from Santa Cruz Biotech, Santa Cruz, Calif.), or monoclonal mouse-anti human p21 (1:200 v/v, Santa Cruz Biotech), monoclonal mouse-anti human p27 (1:2,500 v/v BD Transduction Laboratories), polyclonal mouse-anti human ubiquitin (1:2,000 v/v Calbiochem) and monoclonal mouse-anti-β-actin (1:10,000 v/v) (Sigma, St. Lois, Mo.). Secondary antibodies (Amersham Bioscience UK, Little Chalfont, England) were horseradish peroxidase (HRP)-conjugated goat anti-mouse IgG (1:10,000 v/v) and anti-rabbit (1:5,000 v/v). Detection was performed by the Enhanced Chemical Luminescence (ECL) method (Pierce, Rockford, Ill.).

## Oc1c(I)cc(Cl)c2cccnc12 [clioquinol, 5-chloro-7-iodo-8-hydroxyquinoline]
[1]
  chymotrypsin-like activity of the proteasome: inhibited chymotrypsin-like activity at low micromolar concentrations
[2]; 100 mg/kg oral twice daily for 10 days
  tumor progression (weight and volume of intraperitoneal tumor): delayed tumor progression
[2]; in vivo mouse model of leukemia
  tumor weight: dramatically reduces tumor weight
[3]
  levels of cyclin D2: reduced levels of cyclin D2
[4]
  amount of ubiquitinated protein: increased the amount of ubiquitinated protein
